This assay relates to HIV-1 (HIVIIIB). Put plainly: HIV-1 replication in MT2 cell line with and without 30% human serum (viral RT activity in supernatant). Format: cell-based. Conditions: Human immunodeficiency virus 1, MT2, MT-2 cells, average IC50 if tested more than once. Put shortly:
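MT2 cells infected with HIVIIIB at MOI 0.5 for 3 h, washed, then cultured with serially diluted compound in RPMI/10% FBS, with or without 30% human serum, at 37° C. Compound-containing medium refreshed at day 3. Replication measured as supernatant RT activity at day 5; IC50 and IC90 from curve fits.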

Where [1] appears, read: with 30% human serum, read-out: MT-2 (HIVIIIB) with 30% HS IC50 range.
[2] abbreviates: without HS, read-out: MT-2 (HIVIIIB) IC50 range.

SMILES strings stand for the structures. Like-named read-outs stand apart in the source and are kept apart here.

For `CC(C)C1=C2C3CCC4[C@@]5(C)CC[C@H](OC(=O)CC(C)(C)C(=O)O)C(C)(C)C5CC[C@@]4(C)[C@]3(C)CC[C@@]2(C(=O)NC[C@@H]2CCCN2C(=O)OC(C)(C)C)CC1=O` (stereo partly drawn) [9-80, 3β-O-(3′,3′-Dimethylsuccinyl)-21-oxolup-18-en-28-oic acid N-(S)-2-acetylaminomethyl-pyrrolidine-1-carboxylic acid tert-butyl ester], the IC50 (commonly the concentration needed to halve the response being measured) under setting [1] is less than 199 nM.
The same measure, in the same setting: then `CC(C)C1=C2[C@H]3CC[C@@H]4[C@@]5(C)CC[C@H](OC(=O)CC(C)(C)C(=O)O)C(C)(C)[C@@H]5CC[C@@]4(C)[C@]3(C)CC[C@@]2(C(=O)Nc2ccccc2C(F)(F)F)CC1=O` [9-65, 3β-O-(3′,3′-Dimethylsuccinyl)-21-oxolup-18-en-28-oic acid N-2-trifluoromethyl-phen-1-yl acetamide], with less than 199 nM.
The same measure, in the same setting: in the case of `CC(C)C1=C2C3CCC4[C@@]5(C)CC[C@H](OC(=O)CC(C)(C)C(=O)O)C(C)(C)C5CC[C@@]4(C)[C@]3(C)CC[C@@]2(C(=O)Nc2ccccc2C(C)C)CC1=O` (stereo partly drawn) [9-87, 3β-O-(3′,3′-Dimethylsuccinyl)-21-oxolup-18-en-28-oic acid N-2-isopropyl-phen-1-yl acetamide] it was 200 to 999 nM; in that of `Cc1nnc(NC(=O)[C@@]23CC[C@]4(C)[C@H](CC[C@@H]5[C@@]6(C)CC[C@H](OC(=O)CC(C)(C)C(=O)O)C(C)(C)[C@@H]6CC[C@]54C)C2=C(C(C)C)C(=O)C3)o1` [9-62, 3β-O-(3′,3′-Dimethylsuccinyl)-21-oxolup-18-en-28-oic acid N-(5-methyl-[1,3,4]oxadiazol-2-yl)-acetamide], 200 to 999 nM.
On the same count and under the same terms, in the case of `CC(C)C1=C2[C@H]3CC[C@@H]4[C@@]5(C)CC[C@H](OC(=O)CC(C)(C)C(=O)O)C(C)(C)[C@@H]5CC[C@@]4(C)[C@]3(C)CC[C@@]2(C(=O)Nc2ccn(C)n2)CC1=O` [9-53, 3β-O-(3′,3′-Dimethylsuccinyl)-21-oxolup-18-en-28-oic acid N-3-amino-1-methyl-1H-pyrazole-acetamide] it was less than 199 nM; in that of `CC(C)C1=C2C3CCC4[C@@]5(C)CC[C@H](OC(=O)CC(C)(C)C(=O)O)C(C)(C)C5CC[C@@]4(C)[C@]3(C)CC[C@@]2(C(=O)Nc2nnn(C)n2)CC1=O` (stereo partly drawn) [9-90, 3β-O-(3′,3′-Dimethylsuccinyl)-21-oxolup-18-en-28-oic acid N-(1-methyl-1H-tetrazol-3-yl)-acetamide], less than 199 nM; in that of `CC(C)C1=C2[C@H]3CC[C@@H]4[C@@]5(C)CC[C@H](OC(=O)CC(C)(C)C(=O)O)C(C)(C)[C@@H]5CC[C@@]4(C)[C@]3(C)CC[C@@]2(C(=O)Nc2cccnc2)CC1=O` [9-26, 3β-O-(3′,3′-Dimethylsuccinyl)-21-oxolup-18-en-28-oic acid N-pyridin-3-yl-acetamide], less than 199 nM.
`Cc1cc(C)nc(NC(=O)[C@@]23CC[C@]4(C)[C@H](CC[C@@H]5[C@@]6(C)CC[C@H](OC(=O)CC(C)(C)C(=O)O)C(C)(C)[C@@H]6CC[C@]54C)C2=C(C(C)C)C(=O)C3)n1` [9-58, 3β-O-(3′,3′-Dimethylsuccinyl)-21-oxolup-18-en-28-oic acid N-4,6-dimethyl-pyrimidin-2-yl-acetamide]: the IC50 under setting [1] is less than 199 nM.
As to `CC(C)C1=C2[C@H]3CC[C@@H]4[C@@]5(C)CC[C@H](OC(=O)CC(C)(C)C(=O)O)C(C)(C)[C@@H]5CC[C@@]4(C)[C@]3(C)CC[C@@]2(C(=O)N2CCN(C)C(=O)C2)CC1=O` [9-46, 3β-O-(3′,3′-Dimethylsuccinyl)-21-oxolup-18-en-28-oic acid N-4-(1-methyl-piperazi-2-one)-acetamide], under setting [1], the 50% inhibitory concentration (IC50) is less than 199 nM.
Still for that read-out and setting: then `CC(C)C1=C2C3CCC4[C@@]5(C)CC[C@H](OC(=O)CC(C)(C)C(=O)O)C(C)(C)C5CC[C@@]4(C)[C@]3(C)CC[C@@]2(C(=O)NC[C@@H]2CCCN2C)CC1=O` (stereo partly drawn) [9-84, 3β-O-(3′,3′-Dimethylsuccinyl)-21-oxolup-18-en-28-oic acid N-((S)-1-methyl-pyrrolidin-2-ylmethyl)-acetamide], with less than 199 nM; and `COC(=O)NCCNC(=O)[C@@]12CC[C@]3(C)[C@H](CC[C@@H]4[C@@]5(C)CC[C@H](OC(=O)CC(C)(C)C(=O)O)C(C)(C)[C@@H]5CC[C@]43C)C1=C(C(C)C)C(=O)C2` [9-24, 3β-O-(3′,3′-Dimethylsuccinyl)-21-oxolup-18-en-28-oic acid N-(2-acetylamino-ethyl)-carbamic acid methyl ester], with less than 199 nM.
Still for that read-out and setting: then `CC(C)NC(=O)NC1CCN(C(=O)[C@@]23CC[C@]4(C)[C@H](CC[C@@H]5[C@@]6(C)CC[C@H](OC(=O)CC(C)(C)C(=O)O)C(C)(C)[C@@H]6CC[C@]54C)C2=C(C(C)C)C(=O)C3)CC1` [9-44, 3β-O-(3′,3′-Dimethylsuccinyl)-21-oxolup-18-en-28-oic acid N-[(4-amino-N′-isopropylureido)-1-piperidine]-acetamide], with less than 199 nM; and `CC(C)C1=C2C3CCC4[C@@]5(C)CC[C@H](OC(=O)CC(C)(C)C(=O)O)C(C)(C)C5CC[C@@]4(C)[C@]3(C)CC[C@@]2(C(=O)N2Cc3ccccc3C2)CC1=O` (stereo partly drawn) [9-92, 3β-O-(3′,3′-Dimethylsuccinyl)-21-oxolup-18-en-28-oic acid N-(1,3-dihydro-isoindol-2-yl)-acetamide], with less than 199 nM; and `CC(C)C1=C2[C@H]3CC[C@@H]4[C@@]5(C)CC[C@H](OC(=O)CC(C)(C)C(=O)O)C(C)(C)[C@@H]5CC[C@@]4(C)[C@]3(C)CC[C@@]2(C(=O)Nc2cnccn2)CC1=O` [9-59, 3β-O-(3′,3′-Dimethylsuccinyl)-21-oxolup-18-en-28-oic acid N-pyrazin-2-yl-acetamide], with less than 199 nM.
Same read-out and setting: in the case of `CC(C)C1=C2[C@H]3CC[C@@H]4[C@@]5(C)CC[C@H](OC(=O)CC(C)(C)C(=O)O)C(C)(C)[C@@H]5CC[C@@]4(C)[C@]3(C)CC[C@@]2(C(=O)N2CCC(N)CC2)CC1=O` [9-42] it was less than 199 nM; in that of `CC(C)C1=C2[C@H]3CC[C@@H]4[C@@]5(C)CC[C@H](OC(=O)CC(C)(C)C(=O)O)C(C)(C)[C@@H]5CC[C@@]4(C)[C@]3(C)CC[C@@]2(C(=O)Nc2ccncc2)CC1=O` [9-52, 3β-O-(3′,3′-Dimethylsuccinyl)-21-oxolup-18-en-28-oic acid N-pyridin-4-yl-acetamide], less than 199 nM.
For the compound `CC(C)C1=C2[C@H]3CC[C@@H]4[C@@]5(C)CC[C@H](OC(=O)CC(C)(C)C(=O)O)C(C)(C)[C@@H]5CC[C@@]4(C)[C@]3(C)CC[C@@]2(C(=O)N2CCNC(=O)C2)CC1=O` [9-37, 3β-O-(3′,3′-Dimethylsuccinyl)-21-oxolup-18-en-28-oic acid N-4-piperazi-2-one acetamide], the IC50 under setting [1] was less than 199 nM.
`CC(C)C1=C2[C@H]3CC[C@@H]4[C@@]5(C)CC[C@H](OC(=O)CC(C)(C)C(=O)O)C(C)(C)[C@@H]5CC[C@@]4(C)[C@]3(C)CC[C@@]2(C(=O)NCc2cccc(Cl)c2)CC1=O` [9-13, 3β-O-(3′,3′-Dimethylsuccinyl)-21-oxolup-18-en-28-oic acid N-3-chloro-benzylamide]: under setting [2], the IC50 is less than 199 nM.
Regarding `Cc1cc(NC(=O)[C@@]23CC[C@]4(C)C(CCC5[C@@]6(C)CC[C@H](OC(=O)CC(C)(C)C(=O)O)C(C)(C)C6CC[C@]54C)C2=C(C(C)C)C(=O)C3)no1` (stereo partly drawn) [9-91, 3β-O-(3′,3′-Dimethylsuccinyl)-21-oxolup-18-en-28-oic acid N-(5-methyl-isoxazol-3-yl)-acetamide], the IC50 under setting [1] was less than 199 nM.
On the same count and under the same terms, in the case of `CC(C)C1=C2[C@H]3CC[C@@H]4[C@@]5(C)CC[C@H](OC(=O)CC(C)(C)C(=O)O)C(C)(C)[C@@H]5CC[C@@]4(C)[C@]3(C)CC[C@@]2(C(=O)NCCN)CC1=O` [9-21, 3β-O-(3′,3′-Dimethylsuccinyl)-21-oxolup-18-en-28-oic acid N-(2-amino-ethyl)-acetamide] it was less than 199 nM; in that of `COC(=O)N1CCN(C(=O)[C@@]23CC[C@]4(C)[C@H](CC[C@@H]5[C@@]6(C)CC[C@H](OC(=O)CC(C)(C)C(=O)O)C(C)(C)[C@@H]6CC[C@]54C)C2=C(C(C)C)C(=O)C3)CC1` [9-40, 3β-O-(3′,3′-Dimethylsuccinyl)-21-oxolup-18-en-28-oic acid N-1-acetyl-piperazine-4-carboxylic acid methyl ester], less than 199 nM.
Regarding `CNC(=O)[C@@]12CC[C@]3(C)[C@H](CC[C@@H]4[C@@]5(C)CC[C@H](OC(=O)CC(C)(C)C(=O)O)C(C)(C)[C@@H]5CC[C@]43C)C1=C(C(C)C)C(=O)C2` [9-2, 3β-O-(3′,3′-Dimethylsuccinyl)-21-oxolup-18-en-28-oic acid N-methylamide], the IC50 under setting [2] was less than 199 nM.
In the case of `CC(C)C1=C2[C@H]3CC[C@@H]4[C@@]5(C)CC[C@H](OC(=O)CC(C)(C)C(=O)O)C(C)(C)[C@@H]5CC[C@@]4(C)[C@]3(C)CC[C@@]2(C(=O)N2CCCCC2)CC1=O` [9-6, 3β-O-(3′,3′-Dimethylsuccinyl)-21-oxolup-18-en-28-oic acid N-piperidinyl acetamide], under setting [1], the IC50 was less than 199 nM.
On the same count and under the same terms, in the case of `CC(C)C1=C2[C@H]3CC[C@@H]4[C@@]5(C)CC[C@H](OC(=O)CC(C)(C)C(=O)O)C(C)(C)[C@@H]5CC[C@@]4(C)[C@]3(C)CC[C@@]2(C(=O)NCC2CC2)CC1=O` [9-69, 3β-O-(3′,3′-Dimethylsuccinyl)-21-oxolup-18-en-28-oic acid N-cyclopropylmethyl acetamide] it was less than 199 nM.
On the same count and under the same terms, then `CC(C)C1=C2[C@H]3CC[C@@H]4[C@@]5(C)CC[C@H](OC(=O)CC(C)(C)C(=O)O)C(C)(C)[C@@H]5CC[C@@]4(C)[C@]3(C)CC[C@@]2(C(=O)Nc2cnn(C)c2)CC1=O` [9-57, 3β-O-(3′,3′-Dimethylsuccinyl)-21-oxolup-18-en-28-oic acid N-4-amino-1-methyl-1H-pyrazole acetamide], with less than 199 nM.

The values are drawn from patent US8431556B2, “C-21-keto lupane derivatives preparation and use thereof” (Vertex Pharmaceuticals Incorporated, priority 2008, dated 2013).
